Several values for one entry are separate records, joined by “and”; a condition that tells them apart may be missing. Equal values may be shown once.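 Tested at 5 concentrations; 48 h exposure; 96-well plates; endpoints linearly interpolated, else capped at highest concentration. GI50: concentration for 50% inhibition of growth. TGI: concentration producing complete growth inhibition.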
Columns and labels:
Test in all cases: NCI anticancer screen, dose series, 48 h
[1] = system: NCI-H460 lung
[2] = system: NCI-H522 lung
[3] = system: OVCAR-5 ovarian
[4] = system: MOLT-4 leukemia
[5] = system: NCI/ADR-RES ovarian
[6] = system: MALME-3M melanoma
[7] = system: SF-295 CNS
[8] = system: HT29 colon
[9] = system: SN12C renal
[10] = system: OVCAR-4 ovarian

SMILES | TGI [1] | TGI [2] | TGI [3] | TGI [4] | TGI [5] | TGI [6] | TGI [7] | TGI [8] | TGI [9] | GI50 [10] [µM] | TGI [10] | GI50 [1] [µM] | GI50 [2] [µM] | GI50 [3] | GI50 [4] [µM] | GI50 [5] [µM] | GI50 [6] [µM] | GI50 [7] | GI50 [9] | GI50 [8] [µM]
CC1CC(O)C(=O)C(O[C@@H]2C[C@@H]3CC[C@@H]4[C@H](CC[C@]5(C)C(C6=CC(=O)OC6)CC[C@]45O)[C@@]3(C=O)C[C@H]2O)O1 (some centres undefined) | 0.0414 µM | < 0.0274 µM | 0.283 µM | 0.0991 µM | 0.0678 µM | 0.0708 µM | 0.149 µM | 0.171 µM | – | – | – | – | – | – | – | – | – | – | – | –
COc1ccc(C(=O)c2cc(OC)c(OC)c(OC)c2)cc1OC | > 100 µM | 12.3 µM | > 100 µM | > 100 µM | > 100 µM | > 100 µM | 4.27 µM | 9.75 µM | > 100 µM | – | – | – | – | – | – | – | – | – | – | –
Cc1ccc(OCCOCCOCCOCCOc2ccc(C)n(O)c2=S)c(=S)n1O | 7.28 µM | > 79.7 µM | > 100 µM | > 100 µM | > 100 µM | > 52.7 µM | > 100 µM | > 100 µM | > 100 µM | < 0.0105 | 55 µM | < 0.01 | 0.0294 | 0.408 µM | < 0.01 | < 0.0158 | 0.0644 | 0.0261 µM | 0.0266 µM | < 0.01
COc1ccc(/C(C)=C(\c2ccc(OCCN3CCCCCC3)cc2)c2ccc(OC(=O)C3CCCCC3)cc2)cc1 | 2.1 µM | 5.36 µM | 3.44 µM | 2.54 µM | 4.78 µM | 2.14 µM | 1.8 µM | 2.14 µM | 3.28 µM | 0.785 | 3.35 µM | 0.592 | 2.12 | 1.41 µM | 0.497 | 1.61 | 0.517 | 0.484 µM | 1.11 µM | 0.46
CO[C@H]1Nc2c(ccc(C)c2O)C(=O)N2C=C(/C=C/C(N)=O)C[C@@H]12 | 31.1 µM | 0.182 µM | 5.45 µM | 6.29 µM | 0.085 µM | 0.0591 µM | 1.75 µM | 1.51 µM | 1.05 µM | – | 0.686 µM | – | – | – | – | – | – | – | – | –
CC(C)[C@H](O)C(=O)N[C@@H](C)C(=O)N[C@@H]1C(=O)N(C)CCc2ccccc21 | > 100 µM | > 100 µM | > 100 µM | > 100 µM | > 100 µM | > 100 µM | > 100 µM | > 100 µM | > 100 µM | > 100 | > 100 µM | > 100 | > 100 | > 100 µM | > 100 | > 100 | > 100 | > 100 µM | > 100 µM | > 100
O=C1CCCN1c1ccccc1I(=O)=O | > 100 µM | > 100 µM | > 100 µM | > 100 µM | > 100 µM | > 100 µM | > 100 µM | > 100 µM | > 100 µM | > 100 | > 100 µM | > 100 | > 100 | > 100 µM | > 100 | > 100 | > 100 | > 100 µM | > 100 µM | > 100
OC(c1cc(-c2ccc(C(F)(F)F)cc2)nc(C(F)(F)F)c1)C1CCCCN1 (centres undefined) | 3.4 µM and 3.95 µM | 3.19 µM and 3.27 µM | 2.87 µM and 7.52 µM | 3.16 µM and 4.34 µM | 3.1 µM and 5.99 µM | 3.28 µM and 3.38 µM | 2.7 µM and 6.54 µM | 3.22 µM and 3.87 µM | 3.19 µM and 7.37 µM | – | 5.6 µM | 1.81 | – | 1.53 µM and 2.71 µM | 1.32 | 1.65 | – | 1.38 µM and 2.84 µM | 1.79 µM and 3.13 µM | 1.65
CC(C)(C)[Si](C)(C)OC1[C@@H](CNC(=O)NC(=O)CCl)O[C@@H](n2cnc3c(N)ncnc32)[C@H]1O[Si](C)(C)C(C)(C)C (some centres undefined) | 3.21 µM | 1.61 µM | 1.62 µM | 1.73 µM | 3.11 µM | 1.96 µM | – | 1.43 µM | 1.88 µM | 0.924 | 2.51 µM | 1.24 | 0.718 | 0.818 µM | 0.53 | 1.18 | 0.98 | – | 0.821 µM | 0.585
c1ccc2c(c1)[nH]c1c2cc[n+]2cc3c(cc12)CCCC3 | 4.54 µM and 3.22 µM | 5.48 µM and 6.23 µM | 17.9 µM and 13.6 µM | 13.7 µM and 3.73 µM | > 100 µM | 3.54 µM | 16 µM and 14.5 µM | 9.74 µM and 19.6 µM | 12.8 µM and 12.1 µM | 2.14 | 7.6 µM and 5.73 µM | 1.66 | 2.27 | 3.87 µM | 3.74 | 93.8 | 1.65 | – | 3.05 µM | 2.4
COc1ccc(-c2nc(-c3cc(OC)cc(OC)c3)[nH]c2-c2ccc(OC)cc2)cc1 | > 100 µM | 59.3 µM | > 100 µM | 8.15 µM | > 100 µM | > 100 µM | > 100 µM | > 100 µM | > 100 µM | 4.03 | > 100 µM | 5.98 | 3.42 | > 100 µM | 2.8 | 9.76 | 8.31 | 5.51 µM | > 100 µM | 4.97
O=C(NCc1ccc(Cn2c(=O)sn(-c3ccccc3)c2=O)cc1)OCc1ccc2cccc(O)c2n1 | 3.13 µM | 1.69 µM | 3.12 µM | > 24.3 µM | 8.87 µM | 2.86 µM | 5.82 µM | 2.08 µM | 2.24 µM | 0.947 | 2.28 µM | 1.41 | 0.407 | 1.54 µM | 0.785 | 1.7 | 1.48 | 2.14 µM | 0.907 µM | 0.556
CCNC(=O)/C(=C/c1ccc(OC)cc1)c1cc(OC)c(OC)c(OC)c1 | 57 µM | 20.8 µM | > 100 µM | > 100 µM | > 28 µM | > 100 µM | 19.6 µM | 65.4 µM | > 100 µM | – | > 100 µM | – | – | – | – | – | – | – | – | –
Nc1cc2c(cc1Br)[nH]c(=O)c1ccccc12 | 18.5 µM | 19.8 µM | 41.1 µM | 43 µM | 35.1 µM | 4.78 µM | 38.4 µM | 10.8 µM | 13.8 µM | 2.55 | 38.5 µM | 3.66 | 5.47 | 6.91 µM | 4.03 | 9.25 | 2.17 | 10.2 µM | 2.68 µM | 3.46
COc1ccc(-c2nn(-c3cccc(Cl)c3)cc2-c2cc(-c3ccccc3)[nH]c(=O)c2C#N)cc1 | > 50 µM | 20.8 µM | > 50 µM | > 50 µM | 36 µM | > 50 µM | – | > 50 µM | > 50 µM | 1.25 | 5.34 µM | 2.35 | 3.59 | 32.3 µM | 42.3 | 2.14 | 13.7 | – | 7.94 µM | 19.5
O=C(Nc1cc(Nc2ncccc2-c2ncnc3nc[nH]c23)ccc1F)c1cc(C(F)(F)F)cc(C(F)(F)F)c1 | 5.31 µM | > 10 µM | 2.98 µM | 6.67 µM | 7.32 µM | 0.542 µM | 4.01 µM | 4.03 µM | > 10 µM | 1.57 | 4.34 µM | 1.98 | 2.38 | 0.868 µM | 2.32 | 2.08 | 0.152 | 1.73 µM | 2.73 µM | 0.446
COc1ccc(-c2nccn2-c2ccc(OC)cc2)cc1 | 60.7 µM | 42.9 µM | > 100 µM | 89.4 µM | 49.4 µM | 50.3 µM | 74.2 µM | 32.9 µM | 50.3 µM | 30.2 | > 100 µM | 17.9 | 17 | 25 µM | 27.4 | 20.5 | 15.9 | 21 µM | 20.8 µM | 13
CC(C)c1[nH]nc2c1N=C(c1ccccc1Cl)c1cc([N+](=O)[O-])ccc1N2 | 15.9 µM | > 18.3 µM | > 25 µM | 20.6 µM | > 25 µM | > 25 µM | > 25 µM | > 22.2 µM | > 25 µM | 8.06 | > 24.2 µM | 5.77 | 2.29 | 12.2 µM | 6.76 | 6.37 | > 16.2 | 8.52 µM | 8.17 µM | 8.72
Cc1cc(N/N=C/c2ccccn2)nc2ccccc12 | 11.6 µM | 4.81 µM | 18.5 µM | 4.98 µM | 21.7 µM | 10.2 µM | 3.2 µM | 13.1 µM | 17.3 µM | 0.166 | 7.2 µM | 0.349 | 0.359 | 0.542 µM | 0.352 | 0.393 | 0.842 | 0.307 µM | 0.368 µM | 0.605
COc1ccc(-c2cnnn2-c2nonc2-n2cccc2)cc1 | 11.6 µM | 0.487 µM | > 100 µM | 12.6 µM | 0.67 µM | 27.6 µM | 6.21 µM | 2.8 µM | > 100 µM | 1.78 | > 100 µM | 0.344 | 0.136 | 1.45 µM | 0.498 | 0.102 | 0.382 | 0.246 µM | 0.595 µM | 0.128
ClCCN(CCCl)c1ccc(CNc2ccccc2)cc1 | > 100 µM | 22 µM | > 100 µM | > 100 µM | > 100 µM | 76.8 µM | > 100 µM | > 100 µM | > 100 µM | 16.2 | > 100 µM | 1.21 | 4.85 | 25.8 µM | 2.81 | 9.78 | 21.8 | 3.16 µM | 4 µM | 20.4
O=C(c1ccco1)c1c(C(F)(F)F)n([O-])c2ccc(C(F)(F)F)cc2[n+]1=O | 1.57 µM | 1.16 µM | 1.38 µM | 0.313 µM | 0.939 µM | 1.47 µM | 1.71 µM | 0.674 µM | 0.556 µM | – | – | 0.434 | 0.462 | 0.38 µM | 0.0912 | 0.257 | 0.595 | 0.626 µM | 0.255 µM | 0.243
CCCC/C(=C\C1=C(C)C(=O)C(OC)=C(OC)C1=O)C(=O)O | > 100 µM | > 100 µM | > 100 µM | > 100 µM | > 100 µM | > 100 µM | > 100 µM | > 100 µM | > 100 µM | 31.6 | > 100 µM | > 100 | > 100 | > 100 µM | 6.54 | > 100 | > 100 | > 100 µM | > 100 µM | > 100
N#CCCN1C/C(=C/c2ccc(Br)cc2)C(=O)/C(=C/c2ccc(Br)cc2)C1 | – | 3.81 µM | 3.97 µM | > 100 µM | > 100 µM | 5.29 µM | – | 1.24 µM | 4.6 µM | 2.69 | > 100 µM | – | 1.89 | 1.92 µM | 2.85 | 3.47 | 2.23 | – | 1.88 µM | 0.338
CCCc1cc(=O)n2c(C(=O)Nc3ccc(Cl)cc3C)c(C(=O)Nc3ccc(F)cc3)sc2n1 | > 150 µM | 67.5 µM | > 150 µM | 22.2 µM | 59.7 µM | 20.7 µM | 131 µM | > 150 µM | – | 2.57 | 6.25 µM | 20.8 | 9.18 | 53.9 µM | 3.99 | 10.6 | 5.12 | 31.7 µM | – | 12.2
C=CC(=O)N1CN(C(=O)C=C)CN(C(=O)C=C)C1 | 50.4 µM | 3.51 µM | 24.7 µM | 8.05 µM | > 100 µM | 7.2 µM | – | 10.4 µM | 51.6 µM | 5.06 | 21.2 µM | 21.7 | 1.65 | 10.6 µM | 2.71 | 6.81 | 2.81 | – | 20.7 µM | 3.26
